Values quoted from earlier work, collected in patent US20040258731A1, “Preparation approriate for cartilage tissue formation” (priority 2001, published 2004).

Legend:
[1] = tested on: articular cartilage
[2] = tested on: articular cartilage; settings: experimental arthritis model animals, intraarticular administration

Substance | synovitis ([1]; in vivo) | chondrogenesis ([1]; intraarticularly administered) | arthritis-induced loss of proteoglycans in articular cartilage [2]
TGF-β | marked synovitis | – | –
TGF-β1: an isoform of TGF-β (Transforming Growth Factor β) | – | promote chondrogenesis | suppresses arthritis-induced loss of proteoglycans in articular cartilage
